In this assay the target is human σ1 receptor (Homo sapiens (Human), UniProt Q99720). Kind of assay: Human σ1 receptor radioligand assay. The following applies: transfected HEK-293 membranes, [3H](+)-pentazocine radioligand. The format is binding. The protocol:
Human σ1 Receptor Radioligand Assay
To investigate binding properties of test compounds to human σ1 receptor, transfected HEK-293 membranes and [^3H](+)-pentazocine (Perkin Elmer, NET-1056), as the radioligand, were used. The assay was carried out with 7 μg of membrane suspension, 5 nM of [^3H](+)-pentazocine in either absence or presence of either buffer or 10 μM Haloperidol for total and non-specific binding, respectively. Binding buffer contained Tris-HCl 50 mM at pH 8. Plates were incubated at 37° C. for 120 minutes. After the incubation period, the reaction mix was then transferred to MultiScreen HTS, FC plates (Millipore), filtered and plates were washed 3 times with ice-cold 10 mM Tris-HCL (pH7.4). Filters were dried and counted at approximately 40% efficiency in a MicroBeta scintillation counter (Perkin-Elmer) using EcoScint liquid scintillation cocktail

Among the data in patent US10689398B2, “OXA-Diazaspiro compounds having activity against pain” (ESTEVE PHARMACEUTICALS, S.A., priority 2015, dated 2020) are Ki values, retold here.

human σ1 receptor, sequence (Q99720 whole entry): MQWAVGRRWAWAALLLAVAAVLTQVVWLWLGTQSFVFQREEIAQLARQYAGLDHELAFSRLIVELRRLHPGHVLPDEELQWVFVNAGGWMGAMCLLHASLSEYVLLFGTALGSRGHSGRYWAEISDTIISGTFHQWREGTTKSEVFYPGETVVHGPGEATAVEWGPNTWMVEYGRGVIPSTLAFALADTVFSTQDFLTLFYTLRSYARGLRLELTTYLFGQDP

The molecule `CCN1CC2(CCCN(CCC(C)C)C2)OC2(CC2)C1=O` (stereo not drawn) [Example 1, 12-Ethyl-7-isopentyl-4-oxa-7,12-diazadispiro[2.1.5.3]tridecan-13-one] registered a Ki of at least 500 nM. Turning to `CCN1CC2(CCCN(CCc3ccccc3)C2)OC2(CC2)C1=O` (stereo not drawn) [Example 2, 12-Ethyl-7-phenethyl-4-oxa-7,12-diazadispiro[2.1.5.3]tridecan-13-one], the Ki is at least 500 nM. `CCN1CC2(CCCN(CCc3ccccc3)CC2)OC2(CC2)C1=O` (stereo not drawn) [Example 3, 13-ethyl-8-phenethyl-4-oxa-8,13-diazadispiro[2.1.6.3]tetradecan-14-one]: the Ki is below 100 nM.

In turn, `CCN1CC2(CCCN(CCC(C)C)CC2)OC2(CC2)C1=O` (stereo not drawn) [Example 4, 13-ethyl-8-isopentyl-4-oxa-8,13-diazadispiro[2.1.6.3]tetradecan-14-one] displayed a Ki below 100 nM. Take `CCN1CC2(CN(CCc3ccccc3)C2)OC2(CC2)C1=O` [Example 5]: the Ki was below 500 nM. As for `CCN1CC2(CN(CCC(C)C)C2)OC2(CC2)C1=O` [Example 6, 10-ethyl-7-isopentyl-4-oxa-7,10-diazadispiro[2.1.3.3]undecan-11-one], the figure is below 100 nM; as for `O=C1N(c2ccccc2)CC2(CCCN(CCc3ccccc3)C2)OC12CC2` (stereo not drawn) [Example 7, 7-phenethyl-12-phenyl-4-oxa-7,12-diazadispiro[2.1.5.3]tridecan-13-one], below 500 nM; as for `CC(C)CCN1CCCC2(C1)CN(c1ccccc1)C(=O)C1(CC1)O2` (stereo not drawn) [Example 8, 7-isopentyl-12-phenyl-4-oxa-7,12-diazadispiro[2.1.5.3]tridecan-13-one], below 500 nM. With `O=C1N(c2ccccc2)CC2(CCCN(CCc3ccccc3)CC2)OC12CC2` (stereo not drawn) [Example 9, 8-phenethyl-13-phenyl-4-oxa-8,13-diazadispiro[2.1.6.3]tetradecan-14-one] the figure was below 100 nM; with `CC(C)CCN1CCCC2(CC1)CN(c1ccccc1)C(=O)C1(CC1)O2` (stereo not drawn) [Example 10, 8-isopentyl-13-phenyl-4-oxa-8,13-diazadispiro[2.1.6.3]tetradecan-14-one], below 100 nM; with `CCN1CC2(CCCN(Cc3ccccc3)C2)OC2(CC2)C1=O` (stereo not drawn) [Example 11, 7-Benzyl-12-ethyl-4-oxa-7,12-diazadispiro[2.1.5.3]tridecan-13-one], at least 500 nM. As for `CCN1CC2(CCCN(Cc3ccccc3)CC2)OC2(CC2)C1=O` (stereo not drawn) [Example 12, 8-benzyl-13-ethyl-4-oxa-8,13-diazadispiro[2.1.6.3]tetradecan-14-one], the figure is below 100 nM; as for `CCN1CC2(CN(Cc3ccccc3)C2)OC2(CC2)C1=O` [Example 13, 7-benzyl-10-ethyl-4-oxa-7,10-diazadispiro[2.1.3.3]undecan-11-one], at least 500 nM. The molecule `O=C1N(c2ccccc2)CC2(CCCN(Cc3ccccc3)CC2)OC12CC2` (stereo not drawn) [Example 14, 8-benzyl-13-phenyl-4-oxa-8,13-diazadispiro[2.1.6.3]tetradecan-14-one] yielded a Ki below 100 nM.

`O=C1N(c2ccccc2)CC2(CCCN(Cc3ccccc3)C2)OC12CC2` (stereo not drawn) [Example 15, 7-benzyl-12-phenyl-4-oxa-7,12-diazadispiro[2.1.5.3]tridecan-13-one] registered a Ki of at least 500 nM.

Turning to `CCN1CC2(CCCN(CCc3ccccc3)CC2)OC2(CC2)C1` (stereo not drawn) [Example 16, 13-Ethyl-8-phenethyl-4-oxa-8,13-diazadispiro[2.1.6.3]tetradecane], the Ki was below 100 nM.

In the case of `CCN1CC2(CC2)OC2(CCCN(Cc3ccccc3)C2)C1` (stereo not drawn) [Example 17, 7-benzyl-12-ethyl-4-oxa-7,12-diazadispiro[2.1.5.3]tridecane], the Ki was at least 500 nM. `CCN1CC2(CC2)OC2(CCCN(CCc3ccccc3)C2)C1` (stereo not drawn) [Example 18] gave a Ki of at least 500 nM. In turn, `c1ccc(CCN2CCCC3(C2)CN(c2ccccc2)CC2(CC2)O3)cc1` (stereo not drawn) [Example 19, 7-phenethyl-12-phenyl-4-oxa-7,12-diazadispiro[2.1.5.3]tridecane] yielded a Ki below 100 nM. In turn, `CC(C)CCN1CCCC2(C1)CN(c1ccccc1)CC1(CC1)O2` (stereo not drawn) [Example 20, 7-isopentyl-12-phenyl-4-oxa-7,12-diazadispiro[2.1.5.3]tridecane] had a Ki below 100 nM. In the case of `c1ccc(CN2CCCC3(CC2)CN(c2ccccc2)CC2(CC2)O3)cc1` (stereo not drawn) [Example 21, 8-benzyl-13-phenyl-4-oxa-8,13-diazadispiro[2.1.6.3]tetradecane], the Ki is below 100 nM.

As for `c1ccc(CCN2CCCC3(CC2)CN(c2ccccc2)CC2(CC2)O3)cc1` (stereo not drawn) [Example 22, 8-phenethyl-13-phenyl-4-oxa-8,13-diazadispiro[2.1.6.3]tetradecane], the Ki is below 100 nM. `c1ccc(CN2CCCC3(C2)CN(c2ccccc2)CC2(CC2)O3)cc1` (stereo not drawn) [Example 23, 7-benzyl-12-phenyl-4-oxa-7,12-diazadispiro[2.1.5.3]tridecane]: the Ki is below 500 nM. In turn, `O=C(c1ccccc1)N1CC2(CC2)OC2(CCCN(CCc3ccccc3)C2)C1` (stereo not drawn) [Example 24, (7-phenethyl-4-oxa-7,12-diazadispiro[2.1.5.3]tridecan-12-yl)(phenyl)methanone] returned a Ki of at least 500 nM.

`CC(C)CCN1CCCC2(C1)CN(C(=O)c1ccccc1)CC1(CC1)O2` (stereo not drawn) [Example 25, (7-isopentyl-4-oxa-7,12-diazadispiro[2.1.5.3]tridecan-12-yl)(phenyl)methanone] yielded a Ki below 500 nM. The molecule `CC(C)CN1CCCC2(C1)CN(C(=O)c1ccccc1)CC1(CC1)O2` (stereo not drawn) [Example 26, (7-isobutyl-4-oxa-7,12-diazadispiro[2.1.5.3]tridecan-12-yl)(phenyl)methanone] showed a Ki of at least 500 nM. Consider `O=C(c1ccccc1)N1CC2(CCCN(CCc3ccccc3)CC2)OC2(CC2)C1` (stereo not drawn) [Example 27, (8-phenethyl-4-oxa-8,13-diazadispiro[2.1.6.3]tetradecan-13-yl)(phenyl)methanone], for which the Ki was below 100 nM. As for `CC(C)CCN1CCCC2(CC1)CN(C(=O)c1ccccc1)CC1(CC1)O2` (stereo not drawn) [Example 28, (8-isopentyl-4-oxa-8,13-diazadispiro[2.1.6.3]tetradecan-13-yl)(phenyl)methanone], the figure is below 100 nM. With `CC(C)CN1CCCC2(CC1)CN(C(=O)c1ccccc1)CC1(CC1)O2` (stereo not drawn) [Example 29, (8-isobutyl-4-oxa-8,13-diazadispiro[2.1.6.3]tetradecan-13-yl)(phenyl)methanone] the figure was below 500 nM; with `CCN1CC2(CCCN(CCc3ccccc3)CC2)OC(C)(C)C1=O` (stereo not drawn) [Example 30, 4-ethyl-2,2-dimethyl-9-phenethyl-1-oxa-4,9-diazaspiro[5.6]dodecan-3-one], below 100 nM. In turn, `CCN1CC2(CCCN(CCC(C)C)CC2)OC(C)(C)C1=O` (stereo not drawn) [Example 31, 4-ethyl-9-isopentyl-2,2-dimethyl-1-oxa-4,9-diazaspiro[5.6]dodecan-3-one] returned a Ki below 500 nM. For `CCN1CC2(CCCN(CC(C)C)CC2)OC(C)(C)C1=O` (stereo not drawn) [Example 32, 4-ethyl-9-isobutyl-2,2-dimethyl-1-oxa-4,9-diazaspiro[5.6]dodecan-3-one], the Ki was below 500 nM. Take `O=C1N(Cc2ccccc2)CC2(CN(CCc3ccccc3)C2)OC12CC2` [Example 33, 10-benzyl-7-phenethyl-4-oxa-7,10-diazadispiro[2.1.3.3]undecan-11-one]: the Ki was below 100 nM.
